Common to all, as to type: cell-based, Human
The subject of test [1] is mutant IDH1 (HT-1080) cells. Briefly: Neutral comet assay (DNA damage), HT-1080 cells. The settings on record: for rescue of TG02-induced DNA damage: exogenous α-KG or AG-120 with TG02, 48 h. The procedure: (§1) Cell Culture. Human Chondrosarcoma cell line HT-1080 was cultured in MEM (Gibco, USA) supplemented with 10% fetal bovine serum (FBS, Gemini, USA). Human cholangiocarcinoma cell lines RBE, Hccc-9810, and Hucct-1 were cultured in RPMI1640 (Hyclone, USA) supplemented with 10% FBS. Cells were incubated at 37 °C in 5% CO2.
Comet assay. The comet assay is common technique for measurement of DNA damage in individual cells. Under an electrophoretic field, damaged cellular DNA (containing fragments and strand breaks) is separated from intact DNA, yielding a classic “comet tail” shape under the microscope. DNA damage was assayed by OxiSelect™ Comet Assay Kit (CELL BIOLABS, INC.) according to the manufacturer's instructions. Briefly, comet agarose was pipetted onto the OxiSelect™ Comet Slide to form a base layer. Cells were combined with OxiSelect™ Comet agarose at 37 °C, then the agarose/cell mixture was pipetted onto the top of the base layer. Cells were treated with lysis buffer and alkaline solution. Electrophoresis was performed under neutral conditions. The slides were viewed by epifluorescence microscopy using a FITC filter.
Tail Moment=(100×Tail DNA Intensity/Cell DNA Intensity)×Tail Moment Length

In test [2] the test system is mutant IDH1 cells (Hccc-9810). Briefly: Western blot of pH2AX (marker of DNA damage), Hccc-9810 cells. The settings on record: exogenous AG-120 with TG02, 48 h; WB; FIG. 6. The procedure:
as §1
(§2) Western blot. Hccc-9810 and Hucct-1 cells treated with TG02 or AG120 as indicated for 48 h (0.1% DMSO was added as control) were harvested and centrifuged at 500 g for 5 minutes to obtain cell pellets. Then the pellets were lysed in lysis buffer (Beyotime, China) which additionally included a protease inhibitor cocktail (Beyotime, China) and phosphatase inhibitor cocktail (Beyotime, China). Cells were incubated on ice for 30 minutes and then centrifuged at 4 °C, 12000 rpm for 10 minutes to obtain the supernatant as cell lysate. The concentrations of protein in cell lysate were determined by Micro BCA™ Protein Assay Kit (ThermoFisher, USA). 4×SDS-PAGE Sample Loading Buffer (SolarBio, China) was added into cell lysate contained 25 μg of total protein and, after boiling, the mixture was electrophoresed in polyacrylamide gel. After electrophoresis, proteins on the gel were transferred to PVDF membrane, and the membrane was cut at position close to the molecular weights of proteins whose expression was examined (pH2AX (CST, USA), GAPDH (ZSGB-BIO, China)).
On the technique in general: In western blotting, separated proteins are transferred to a membrane and probed.

For another test, the system named is Hucct1R132H/+ cells. Briefly: Western blot of phosphorylated γH2AX (marker of DSBs), Hucct1^R132H/+ cells. The settings on record: 0.2 μM TG02, 16 h, FIG. 7B. The procedure: as §2, with “Hccc-9810 and Hucct-1 cells treated with TG02 or AG120 as indicated for 48 h (0.1% DMSO was added as control) were harvested and centrifuged at 500 g for 5 minutes to obtain cell pellets.” left out
In FIG. 7A, IDH1-mutant Hucct1 cells (Hucct1^R132H/+) were generated by lentivirus expressing IDH1 R132H. Hucct1, Hucct1^R132H/+ and HT-1080 cells were treated with 0.2 μM TG02 or 0.1% DMSO for 48 h. Cells were used to comet assays. Quantification of Tail moment in neutral comet assay is presented. ns: no significant differences; ***: P<0.001, ****: P<0.0001, compared with NC; #: P<0.05, compared with Hucct1 cells treated with TG02. […]

Another test deals with HT-1080. Briefly: Apoptosis assay (Annexin V/PI staining, FACS), HT-1080 cells. The settings on record: 0.2 μM TG02; IDH1-mutant chondrosarcoma HT-1080; compared with IDH1-WT (Hucct-1); FIGS. 2A-2B. The protocol: as §1
(§3) Apoptosis Assay. HT-1080, RBE, Hccc-9810, and Hucct-1 cells were treated with the indicated drugs. Apoptosis was detected by Annexin V/PI staining kit (Thermo Fisher) according to the manufacturer's instructions. Briefly, cells were plated at a density of 1× 10^5 cells/well in media with 10% FBS with desired concentrations of TG02. At 48/72-hour post-treatment the cells were harvested and tested for apoptosis by Annexin V and PI staining. Cell analysis was performed using a FACSCelesta (BD).

For another test, the system named is Hccc-9810. Briefly: Apoptosis assay (Annexin V/PI staining, FACS), Hccc-9810 cells. The procedure:
as §1, §3

Another test has as its system Hucct1^R132H/+ cells. Briefly: Neutral comet assay (Tail moment), Hucct1^R132H/+ cells. To be noted: 0.2 μM TG02, 48 h, compared with Hucct1 treated with TG02, FIG. 7A. The protocol: as §1
(§4) Comet assay. The comet assay is common technique for measurement of DNA damage in individual cells. Under an electrophoretic field, damaged cellular DNA (containing fragments and strand breaks) is separated from intact DNA, yielding a classic “comet tail” shape under the microscope. DNA damage was assayed by OxiSelect™ Comet Assay Kit (CELL BIOLABS, INC.) according to the manufacturer's instructions. Briefly, comet agarose was pipetted onto the OxiSelect™ Comet Slide to form a base layer. Cells were combined with OxiSelect™ Comet agarose at 37 °C, then the agarose/cell mixture was pipetted onto the top of the base layer. Cells were treated with lysis buffer and alkaline solution. Electrophoresis was performed under neutral conditions. […]
In FIG. 7A, IDH1-mutant Hucct1 cells (Hucct1^R132H/+) were generated by lentivirus expressing IDH1 R132H. […] Quantification of Tail moment in neutral comet assay is presented. ns: no significant differences; ***: P<0.001, ****: P<0.0001, compared with NC; #: P<0.05, compared with Hucct1 cells treated with TG02. […]

A further test deals with mutant IDH1 cancer cells. Briefly: Overall conclusion on DNA damage and cell-killing in mutant IDH1 versus homozygous wild-type IDH1 cancer cells. The settings on record: mutant IDH1 relative to homozygous wild-type IDH1 cancer cells. The procedure: as §3, §4
Western blot. […] The concentrations of protein in cell lysate were determined by Micro BCA™ Protein Assay Kit (ThermoFisher, USA). […]

Test [3] concerns Hucct-1 cells transfected with IDH1 R132H plasmid. Briefly: Apoptosis assay (FACS), Hucct-1 cells transfected with IDH1 R132H plasmid. The settings on record: 0.1 μM TG02, 72 h; Hucct-1 transfected with IDH1 R132H; FIG. 3A. The procedure:
as §1, §3
Transfection. The day before transfection, cells (~2×10^5/well) were seeded in a 6-well plate. The cells were cultured in a 37 °C in 5% CO2 incubator overnight. The old medium was removed and 2 ml of transfection medium was added. 50 μl opti-MEM was added to a tube, and then 2 μg plasmid DNA Mix solution was mixed by vortexing. 4 μl PEI solution was added to this tube, and the solution was mixed by gently pipetting up and down. The samples were incubated at room temperature for 15 min to allow the PEI/DNA complexes to form. […]

The next test concerns RBE. Briefly: Apoptosis assay (Annexin V/PI staining, FACS), RBE cells. The settings on record: 0.2 μM TG02; IDH1-mutant cholangiocarcinoma RBE; compared with IDH1-WT (Hucct-1); FIGS. 2A-2B. The procedure:
as §1, §3

[4] abbreviates: neutral comet assay, FIGS. 5A-5B.

As to `N#Cc1ccnc(N2C(=O)CC[C@H]2C(=O)N(c2cncc(F)c2)[C@H](C(=O)NC2CC(F)(F)C2)c2ccccc2Cl)c1` [AG-120, ivosidenib], the “rescue of TG02-induced DNA damage” value in test [1] (setting [4]) was “can be rescued by addition of exogenous α-KG or AG-120”. Moreover, the “rescue of TG02-induced DNA damage (pH2AX)” value in test [2] is “TG02-induced DNA damage was rescued only in mutant IDH1 cells (Hccc-9810)”.

Take `CN1C/C=C/CCOc2cccc(c2)-c2ccnc(n2)Nc2cccc(c2)C1` [TG02, (16E)-14-methyl-20-oxa-5,7,14,27-tetraazatetracyclo[19.3.1.1^2,6. 1^8,12]heptacosa-1(25),2(27),3,5,8,10,12(26),16,21,23-decaene]: in the test on Hucct1R132H/+ cells, the “sensitivity to DNA damage induced by TG02 (phosphorylated γH2AX)” value is on record as “cells with IDH1 mutation are more sensitive to DNA damage induced by TG02”. Also, the “sensitivity to TG02 (apoptosis)” value in the test on HT-1080 is “more sensitive to TG02 than IDH1-WT (Hucct-1) cells”; in the test on Hccc-9810 (0.2 μM TG02, IDH1-mutant cholangiocarcinoma Hccc-9810 (printed Hcc-9810), compared with IDH1-WT (Hucct-1), FIGS. 2A-2B), “more sensitive to TG02 than IDH1-WT (Hucct-1) cells”; in the test with RBE, “more sensitive to TG02 than IDH1-WT (Hucct-1) cells”. Also, the TG02-induced apoptosis entry with Hccc-9810 (TG02 for 72 h, without exogenous α-KG, FIG. 4) was “TG02-induced apoptosis of mutant IDH1 (Hccc-9810) cells”. Also, the “sensitivity to DNA damage induced by TG02 (Tail moment)” value with Hucct1^R132H/+ cells is on record as “cells with IDH1 mutation are more sensitive to DNA damage induced by TG02”; in [1] (0.2 μM TG02, 48 h, HT-1080, compared with Hucct1 treated with TG02, FIG. 7A), “cells with IDH1 mutation are more sensitive to DNA damage induced by TG02”. Also, the “TG02-induced DNA damage” value in [1] (48 h, neutral comet assay, FIGS. 5A-5B) was “TG02-induced DNA damage in mutant IDH1 (HT-1080) cells”. Further, the “selective DNA damage” value with mutant IDH1 cancer cells is “selectively induces DNA damage and cell-killing in mutant IDH1 cancer cells relative to homozygous wild-type IDH1 cancer cells”. Besides, the selective cell-killing result in the test on mutant IDH1 cancer cells was “selectively induces DNA damage and cell-killing in mutant IDH1 cancer cells relative to homozygous wild-type IDH1 cancer cells”. The “TG02 sensitivity (apoptosis)” value in [3] is on record as “increased TG02 sensitivity can be conferred onto IDH1-WT (Hucct-1) cells by transfection of mutated IDH1”.

As to `O=C(O)CCC(=O)C(=O)O` [α-KG, α-ketoglutarate], the “rescue of TG02-induced apoptosis” value in the test with Hccc-9810 (α-KG pretreatment 24 h, then TG02 for 72 h, FIG. 4) was “can be rescued by addition of exogenous substrate α-ketoglutarate (α-KG)”. Further, the “rescue of TG02-induced DNA damage” value in test [1] (setting [4]) is recorded as “can be rescued by addition of exogenous α-KG or AG-120”.
